Laboratory results as given in patent US8980914B2, “Therapeutic agent for chronic obstructive pulmonary disease and method for treatment for chronic obstructive pulmonary disease with the same” (Mariposa Health Limited, priority 2003, dated 2015).

Assays:
[1] = tested on: airway hyper-responsiveness induced by ozone; experiment: Airway hyper-responsiveness model induced by inhalation of ozone in guinea pigs (lung resistance after methacholine); type: in vivo; details: test substance 30 mg/kg one hour before ozone inhalation, RLung after methacholine inhalation 5 hours after end of ozone exposure
Procedure: This test was performed so as to evaluate the pharmacological effect of the 7-aminoquinolinone derivatives of the present invention in an airway hyper-responsiveness model induced by inhalation of ozone in guinea pigs. The test procedure will now be described.
Guinea pigs were fasted for 18 hours or more. The animals were administered the test substance (30 mg/kg) and theophylline (100 mg/kg) one hour before ozone inhalation. For the non-stimulation group and the vehicle control group, vehicle (5 mL/kg) was administered similarly.
The animals were put into an acryl-made chamber (29×19×25 cm), subjected to induction of ozone generated by an ozonizer (EUV3-XU; EBARA JITSUGYO CO, LTD.) and exposed for 2 hours. The ozone concentration in the chamber was approximately 3 ppm. It was confirmed every 30 minutes that this concentration was maintained during exposure by an ozone monitor (EG-5000; EBARA JITSUGYO CO, LTD.) (measured value: 2.53 to 3.40 ppm). For the non-stimulation group, the animals were exposed to a mixed gas (oxygen: 95%, carbonic acid gas: 5%) similarly. The ozone concentration at that time was also confirmed similarly (acceptable concentration: 0.01 ppm or less, measured value: 0.00 to 0.01 ppm).
The measurement of airway hyper-responsiveness was performed 5 hours after the end of ozone exposure. The measurement of lung resistance (RLung) was performed according to the method of R. E. Giles et al. in the same manner as in Example 2. That is, the animals were anesthetized with Nembutal (Trade name: 50 mg/kg, i.p., sodium pentobarbital) and subjected to cannulation into esophagus and trachea. The esophagus and trachea cannulas were connected to a respirator (ventilation volume: 6 mL/kg, ventilation frequency: 60 times/min, SN-480-7) and the RLung after inhalation of methacholine (100 μg/mL, for 1.5 minutes) was measured by the respiratory function analyzer (PULMOS-II; M.I.P.S) through a flow sensor (connected to Validyle DF45F (for flow rate) and DP45P (for pressure)). The inhalation of methacholine was performed with an ultrasonic nebuliser (NE-U17; Omron Matsuzaka) connected to the respirator under artificial respiration.
Used RLung represents 10 breaths having a stable value in a range from 1 to 30 breaths after initiation of each measurement for both before inhalation and during methacholine inhalation. The average of the RLung was calculated. The extreme values in RLung that occurred when animal moved during the measurement were excluded from the calculations.
The percentage of increase of RLung was calculated by the following equation. Increase in lung resistance (%)=([RLung after inhalation of methacholine]−[RLung before administration])/[RLung before administration]×100

[2] = tested on: airway hyper-responsiveness induced by peroxynitrite; experiment: Airway hyper-responsiveness model induced by exposure of peroxynitrite in guinea pigs (lung resistance after histamine); type: in vivo; details: 30 mg/kg orally one hour before peroxynitrite, histamine 32 μg/kg i.v. on 5-day, control group 759, non-stimulation group 382
Procedure: This test was performed so as to investigate the pharmacological effect of the 7-aminoquinolinone derivative of the present invention on an airway hyper-responsiveness model induced by exposure of peroxynitrite in guinea pigs. The test procedure will now be described.
Guinea pigs were fasted for 18 hours or more. The animals were administrated the test substance (30 mg/kg) orally one hour before exposure of peroxynitrite and the neck was dissected under ether anesthesia, and then the trachea was exposed. 0.1 mL of 1 mmol/L peroxynitrite was administered intratracheally into pulmonary side by pushing with air and, after the administration, the incision was sutured and disinfected.
The measurement of airway hyper-responsiveness was performed on 5-day, taking the day of model preparation 0-day. Guinea pigs were fasted for 18 hours or more. The measurement of lung resistance; (RLung) was performed according to the method of R. E. Giles et al. (R. E. Giles, M. P. Finkel and J. Mazurowski: Use of an Analog On-Line Computer for the Evaluation of Pulmonary Resistance and Dynamic Compliance in the Anesthetized Dog. Arch. Int. Pharmacodyn. 194, 213-222 (1971)). That is, the animals were anesthetized with Nembutal (Trade name: 40 mg/kg, i.v., sodium pentobarbital) and subjected to cannulation into esophagus, trachea and jugular veins (for administration of histamine). The esophagus and trachea cannulas were connected to an artificial respirator (ventilation volume: 6 mL/kg, ventilation frequency: 60 times/min, SN-480-7) and the Rlung was measured after intravenous administration (dose of 0.1 mL/kg) of physiological saline solution and histamine (32 μg/kg) using a total plethysmograph system via flow sensor, connected to Validyne DF45F (for flow rate) and DP45P (for pressure). RLung before administration was determined by averaging values of any 3 out of 20 breaths, RLung after administration of physiological saline solution was determined by averaging values of any 3 out of 5 breaths, and RLung after administration of histamine was determined by averaging values of the following 3 breaths; 1) showing the maximum lung resistance, 2) taken just before and 3) taken just after the one with the maximum lung resistance, out less than 20 breaths. (The extreme values in RLung that occurred when animal moved during the measurement were excluded from the calculations.)
The percentage of increase in lung resistance was calculated by the following equation. Increase in lung resistance (%)=([RLung after administration of histamine]−[RLung before administration])/[RLung before administration]×100

[3] = Peroxynitrite scavenging activity (oxidation of dihydrorhodamine 123); type: biochemical; details: oxidation of dihydrorhodamine 123 by peroxynitrite, phosphate buffer pH 7.4; read-out: 50% Inhibitory concentration on oxidation (IC50)
Procedure: This test was performed by estimating the antioxidative effect of the test substance using peroxynitrite quantitative method as a test system with dihydrorhodamine 123 so as to confirm the ability of the 7-aminoquinolinone derivatives of the present invention to scavenge peroxynitrite. This is a method described in NITRIC OXIDE: Biology and Chemistry Vol. 1, 145-157, 1997.
The test substance was weighted in an amount of approximately 10 mg, dissolved in a 10% Tween 80 solution and adjusted to 5×10^−3 mol/L. Then, the solution was diluted with 0.1 mol/L phosphate buffer (pH=7.4) to 5×10^−4 mol/L. The diluent was further diluted stepwise with a phosphate buffer containing 1% Tween 80 to obtain substance solution. The preparation was conducted before use. The final concentration of the test substance was adjusted to 3×10^−6, 1×10^−6, 3×10^−7, 1×10^−7, and 3×10^−8 mol/L, respectively.
To 20 μL of peroxynitrite solution (manufactured by DOJINDO LABORATORIES), 1980 μL of 0.1 mol/L sodium hydroxide was added and the mixture was diluted 100 times. The absorbance of the maximum absorption wavelength near 300 nm was measured using a UV-visible spectrophotometer and the concentration was calculated according to the following equation. Concentration(mmol/L)=(absorbance/1670)×100×1000
Based on the concentration calculated in the above section, dilution with a 0.1 mol/L sodium hydroxide solution was conducted and adjusted to 10 mmol/L. 990 μL of a 0.1 mol/L sodium hydroxide solution was taken into a 1.5 mL-Eppen tube. To the Eppen tube, 10 μL of a solution adjusted to 10 mmol/L was added to prepare a 100 μmol/L solution.
Dihydrorhodamine 123 was dissolved into 1.155 mL of dimethylsulfoxide, and adjusted to the concentration of 25 mmol/L. This solution was dispensed into 20 μL aliquots and then the aliquots were stored in a biomedical freezer (about −20° C.) and used as a stock solution.
To 490 μL of 0.02% Tween 80 containing 0.1 mol/L phosphate buffer, 10 μL of 25 mmol/L of a thawed dihydrorhodamine 123 stock solution was added to make 500 μmol/L. The prepared solution was diluted with 0.1 mol/L phosphate buffer (pH=7.4) 1000 times to prepare 500 nmol/L of a dihydrorhodamine 123 solution.
(1) To a 3.5 mL brown vial containing a stirring bar, 1470 μL of a 500 nmol/L dihydrorhodamine 123 solution and then 15 μL of the test substance solution was added. For the blank and control groups, 15 μL of 0.1 mol/L phosphate buffer containing 1% Tween 80, as a solvent for the test substance solution, was added. After the addition, the mixture was stirred with a stirrer for 30 minutes.
15 μL of a 100 μmol/L peroxynitrite solution was added while stirring. For the blank group, 15 μL of a 0.1 mol/L sodium hydroxide solution was added. After stirring for 15 minutes, fluorescence intensity was measured.
Fluorescence intensity of the reaction solution was measured using a spectrophotofluorometer under the following measuring conditions: excitation wavelength, 500 nm; emission wavelength, 536 nm; measuring times, one; response, 1 sec; photomultiplier tube voltage, Low; band width at excitation side, 10 nm; bandwidth at emission side, 10 nm.
The oxidation rate of dihydrorhodamine 123 when adding the test substance was calculated, taking the oxidation rate of dihydrorhodamine 123 for control as 100, according to the following equation: Oxidation rate (%) of dihydrorhodamine 123=(measured value for each group−measured value for blank)/(measured for control−measured value for blank)×100 Calculation of Oxidation Inhibition Concentration (IC50)
50% oxidation concentration, that is 50% oxidation inhibition concentration (IC50) was calculated by giving a straight line from two points surrounding 50% oxidation rate.

Row | Structure (SMILES) | Increase in lung resistance (%) [1] [%] | Increase in lung resistance (%) [2] [%] | IC50 [3] [nM]
1 | CCCCCCOc1c(O)c2ccc(NC=O)cc2n(CCCC)c1=O [Compound 459] | 26 | 427 | 940
2 | COc1c(O)c2ccc(NC(=O)c3ccccc3)cc2n(C)c1=O [Compound 514] | 31 | 434 | 910
3 | CCCCCCCCOc1c(O)c2ccc(NC(=O)c3ccccc3)cc2n(C)c1=O [Compound 519] | 26 | 440 | 830
4 | COc1cc(C=CC(=O)Nc2ccc3c(O)c(OC)c(=O)n(C)c3c2)cc(OC)c1O [Compound 546] | 27 | 422 | 790
5 | CCCCCCOc1c(O)c2ccc(NC(=O)C=Cc3cc(OC)c(O)c(OC)c3)cc2n(C)c1=O [Compound 549] | 28 | 423 | 800
6 | CCCCCCCCOc1c(O)c2ccc(NC(=O)C=Cc3cc(OC)c(O)c(OC)c3)cc2n(C)c1=O [Compound 551] | 22 | 416 | 710
7 | COc1cc(C=CC(=O)Nc2ccc3c(O)c(OCC=C(C)CCC=C(C)C)c(=O)n(C)c3c2)cc(OC)c1O [Compound 553] | 28 | 417 | 980
8 | CCCCCCOc1c(O)c(=O)n(C)c2cc(NC(=O)C=Cc3cc(OC)c(O)c(OC)c3)ccc12 [Compound 556] | 25 | 426 | 890
9 | CCCCCCOc1c(O)c2ccc(NC(=O)C=Cc3ccc(O)c(OC)c3)cc2n(C)c1=O [Compound 581] | 30 | 430 | 760
